{"source": "paper PMC11674187", "about": "“Inhibitory Effects of Cenobamate on Multiple Human Cardiac Ion Channels and Possible Arrhythmogenic Consequences” (Biomolecules, 2024)", "origin": "cited, not measured here", "key": {"[1]": {"test_system": "human ventricular cardiomyocyte electrophysiology model", "design": "method as in ref [18] Dutta et al., 2017", "details": "12-compound CiPA training set; ref [18] Dutta et al., 2017; cited from earlier work"}, "Nav1.5": {"target": "Nav1.5 (Homo sapiens, UniProt Q14524)", "sequence (Q14524 whole entry)": "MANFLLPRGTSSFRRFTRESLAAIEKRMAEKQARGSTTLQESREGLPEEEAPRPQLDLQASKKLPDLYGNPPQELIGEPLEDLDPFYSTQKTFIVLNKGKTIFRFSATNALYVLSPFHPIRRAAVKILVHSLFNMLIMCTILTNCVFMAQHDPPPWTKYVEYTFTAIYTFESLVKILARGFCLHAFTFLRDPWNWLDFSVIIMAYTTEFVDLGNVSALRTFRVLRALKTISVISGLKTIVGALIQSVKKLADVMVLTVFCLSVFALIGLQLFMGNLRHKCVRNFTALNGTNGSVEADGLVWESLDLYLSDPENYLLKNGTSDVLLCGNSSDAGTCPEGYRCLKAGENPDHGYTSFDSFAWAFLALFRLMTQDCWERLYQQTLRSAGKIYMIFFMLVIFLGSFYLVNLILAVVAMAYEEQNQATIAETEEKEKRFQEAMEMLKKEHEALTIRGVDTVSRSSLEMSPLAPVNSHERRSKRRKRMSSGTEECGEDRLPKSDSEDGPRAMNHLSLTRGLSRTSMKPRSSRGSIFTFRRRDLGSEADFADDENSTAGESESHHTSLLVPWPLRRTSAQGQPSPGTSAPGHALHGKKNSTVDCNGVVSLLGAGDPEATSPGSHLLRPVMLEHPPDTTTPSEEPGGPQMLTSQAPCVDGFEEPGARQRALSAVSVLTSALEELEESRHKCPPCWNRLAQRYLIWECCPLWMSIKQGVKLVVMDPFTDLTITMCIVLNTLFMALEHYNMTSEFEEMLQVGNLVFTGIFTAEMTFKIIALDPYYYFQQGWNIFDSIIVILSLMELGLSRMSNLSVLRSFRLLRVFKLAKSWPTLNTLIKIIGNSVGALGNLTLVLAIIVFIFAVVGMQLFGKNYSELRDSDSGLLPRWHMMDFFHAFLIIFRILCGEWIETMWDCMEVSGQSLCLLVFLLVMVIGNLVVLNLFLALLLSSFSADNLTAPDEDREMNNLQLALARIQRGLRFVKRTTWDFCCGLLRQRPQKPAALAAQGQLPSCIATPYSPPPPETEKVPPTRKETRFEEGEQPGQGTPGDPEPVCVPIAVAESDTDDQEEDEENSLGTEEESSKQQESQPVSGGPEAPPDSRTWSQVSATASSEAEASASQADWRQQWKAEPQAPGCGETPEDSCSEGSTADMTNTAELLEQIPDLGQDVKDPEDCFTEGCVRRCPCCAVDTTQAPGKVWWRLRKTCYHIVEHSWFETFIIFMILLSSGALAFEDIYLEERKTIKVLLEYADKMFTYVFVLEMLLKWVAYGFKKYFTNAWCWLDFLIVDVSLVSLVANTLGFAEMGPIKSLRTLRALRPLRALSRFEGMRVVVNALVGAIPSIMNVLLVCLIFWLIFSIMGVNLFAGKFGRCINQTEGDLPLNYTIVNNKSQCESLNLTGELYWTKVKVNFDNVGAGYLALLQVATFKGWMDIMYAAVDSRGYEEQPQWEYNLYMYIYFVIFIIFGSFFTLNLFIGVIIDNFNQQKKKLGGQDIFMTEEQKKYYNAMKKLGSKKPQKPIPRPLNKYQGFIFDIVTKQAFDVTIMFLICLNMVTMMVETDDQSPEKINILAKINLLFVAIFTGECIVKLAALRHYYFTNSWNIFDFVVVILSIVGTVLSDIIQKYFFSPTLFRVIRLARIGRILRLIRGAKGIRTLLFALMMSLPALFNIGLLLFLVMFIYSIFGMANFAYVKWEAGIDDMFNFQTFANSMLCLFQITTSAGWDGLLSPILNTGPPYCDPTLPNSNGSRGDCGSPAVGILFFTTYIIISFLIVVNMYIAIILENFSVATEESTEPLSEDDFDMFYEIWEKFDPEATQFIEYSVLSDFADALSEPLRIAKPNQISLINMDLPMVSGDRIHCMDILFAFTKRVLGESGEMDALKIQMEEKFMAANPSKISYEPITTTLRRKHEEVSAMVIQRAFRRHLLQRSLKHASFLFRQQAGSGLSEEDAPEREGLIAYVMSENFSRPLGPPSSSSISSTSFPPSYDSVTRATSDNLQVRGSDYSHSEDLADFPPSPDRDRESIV", "design": "method as in PMID 34785211, PMID 33620150", "details": "PT 35–37 °C vs. room temperature; ref [11],[40]; cited from earlier work"}, "persistent INa": {"test_system": "persistent INa", "design": "method as in ref [5] p. 8", "details": "other antiseizure drugs; ref [5] p. 8; cited from earlier work"}}}
{"compound": "COc1cc(N)c(Cl)cc1C(=O)NC1CCN(CCCOc2ccc(F)cc2)CC1OC", "note": "(stereo not shown) [cisapride]", "values": [{"measurement": "CiPA torsadogenic risk category", "setting": "[1]", "result": "intermediate risk"}]}
{"compound": "CCN(CCO)CCCC(C)Nc1ccnc2cc(Cl)ccc12", "note": "(stereo not shown) [hydroxychloroquine]", "values": [{"measurement": "change of apparent IC50 on peak Na+ current at physiological vs. room temperature", "setting": "Nav1.5", "result": "more than a two-fold reduction"}]}
{"compound": "COc1ccccc1OCC(O)CN1CCN(CC(=O)Nc2c(C)cccc2C)CC1", "note": "(stereo not shown) [ranolazine]", "values": [{"measurement": "CiPA torsadogenic risk category", "setting": "[1]", "result": "low risk"}]}
{"compound": "Cc1cccc(C)c1OCC(C)N", "note": "(stereo not shown) [mexiletine]", "values": [{"measurement": "CiPA torsadogenic risk category", "setting": "[1]", "result": "low risk"}]}
{"compound": "C=C[C@H]1C[N@@]2CC[C@H]1C[C@@H]2[C@@H](O)c1ccnc2ccc(OC)cc12", "note": "[quinidine]", "values": [{"measurement": "CiPA torsadogenic risk category", "setting": "[1]", "result": "high risk"}]}
{"compound": "CN(C)CCCN1c2ccccc2Sc2ccc(Cl)cc21", "note": "[chlorpromazine]", "values": [{"measurement": "CiPA torsadogenic risk category", "setting": "[1]", "result": "intermediate risk"}]}
{"compound": "CN(CCOc1ccc(NS(C)(=O)=O)cc1)CCc1ccc(NS(C)(=O)=O)cc1", "note": "[dofetilide]", "values": [{"measurement": "CiPA torsadogenic risk category", "setting": "[1]", "result": "high risk"}]}
{"compound": "Nc1nc2ccc(OC(F)(F)F)cc2s1", "note": "[riluzole]", "values": [{"measurement": "IC50", "setting": "persistent INa", "result": 2, "unit": "µM"}]}
{"compound": "Nc1nnc(-c2cccc(Cl)c2Cl)c(N)n1", "note": "[lamotrigine]", "values": [{"measurement": "IC50", "setting": "persistent INa", "result": 119, "unit": "µM"}]}
{"compound": "CC(C)COCC(CN(Cc1ccccc1)c1ccccc1)N1CCCC1", "note": "(stereo not shown) [bepridil]", "values": [{"measurement": "CiPA torsadogenic risk category", "setting": "[1]", "result": "high risk"}]}
{"compound": "NC(=O)N1c2ccccc2C=Cc2ccccc21", "note": "[carbamazepine]", "values": [{"measurement": "IC50", "setting": "persistent INa", "result": 79.2, "unit": "µM"}]}
{"compound": "Cc1nccn1CC1CCc2c(c3ccccc3n2C)C1=O", "note": "(stereo not shown) [ondansetron]", "values": [{"measurement": "CiPA torsadogenic risk category", "setting": "[1]", "result": "intermediate risk"}]}
{"compound": "CCN(CC)CCCC(C)Nc1ccnc2cc(Cl)ccc12", "note": "(stereo not shown) [chloroquine]", "values": [{"measurement": "change of apparent IC50 on peak Na+ current at physiological vs. room temperature", "setting": "Nav1.5", "result": "approximately four-fold reduction"}]}
